Test results reported in PubChem BioAssay (NCI).
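Interpolation was linear, between the two tested concentrations surrounding the appropriate level; five concentrations were tested over 48 hours in 96-well plates. At the TGI there is no net growth.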

Legend:
Experiment in all cases: inhibition of tumour cell growth, NCI panel, 48 h
HT29 colon = system: HT29 colon
RPMI-8226 leukemia = system: RPMI-8226 leukemia
MDA-N = system: MDA-N
NCI/ADR-RES ovarian = system: NCI/ADR-RES ovarian
HCT-116 colon = system: HCT-116 colon
HOP-62 NSCLC = system: HOP-62 NSCLC
OVCAR-4 ovarian = system: OVCAR-4 ovarian
NCI-H522 lung = system: NCI-H522 lung
SW-620 colon = system: SW-620 colon
K-562 leukemia = system: K-562 leukemia
A549 NSCLC = system: A549 NSCLC
TK-10 renal = system: TK-10 renal
SNB-19 CNS = system: SNB-19 CNS
M14 melanoma = system: M14 melanoma
BT-549 breast = system: BT-549 breast
CAKI-1 renal = system: CAKI-1 renal
NCI-H23 lung = system: NCI-H23 lung
PC-3 prostate = system: PC-3 prostate
RXF 393 renal = system: RXF 393 renal
HOP-92 NSCLC = system: HOP-92 NSCLC
SNB-75 CNS = system: SNB-75 CNS
MDA-MB-231 breast = system: MDA-MB-231 breast
OVCAR-3 ovarian = system: OVCAR-3 ovarian
MDA-MB-435 = system: MDA-MB-435
KM12 colon = system: KM12 colon
NCI-H226 lung = system: NCI-H226 lung
NCI-H460 lung = system: NCI-H460 lung
DU-145 prostate = system: DU-145 prostate
SF-295 CNS = system: SF-295 CNS
OVCAR-5 ovarian = system: OVCAR-5 ovarian
SR leukemia = system: SR leukemia
CCRF-CEM leukemia = system: CCRF-CEM leukemia
EKVX NSCLC = system: EKVX NSCLC
SN12C renal = system: SN12C renal
UO-31 renal = system: UO-31 renal
LOX IMVI melanoma = system: LOX IMVI melanoma
UACC-257 melanoma = system: UACC-257 melanoma
OVCAR-8 ovarian = system: OVCAR-8 ovarian
IGROV1 ovarian = system: IGROV1 ovarian
HL-60(TB) leukemia = system: HL-60(TB) leukemia
SF-268 CNS = system: SF-268 CNS
T-47D breast = system: T-47D breast
SK-MEL-2 melanoma = system: SK-MEL-2 melanoma
HS 578T breast = system: HS 578T breast
SF-539 CNS = system: SF-539 CNS
ACHN renal = system: ACHN renal
SK-MEL-28 melanoma = system: SK-MEL-28 melanoma
SK-OV-3 ovarian = system: SK-OV-3 ovarian
HCT-15 colon = system: HCT-15 colon
MOLT-4 leukemia = system: MOLT-4 leukemia
MALME-3M melanoma = system: MALME-3M melanoma
COLO 205 colon = system: COLO 205 colon
786-0 renal = system: 786-0 renal
U251 CNS = system: U251 CNS
SK-MEL-5 melanoma = system: SK-MEL-5 melanoma
UACC-62 melanoma = system: UACC-62 melanoma
MCF7 breast = system: MCF7 breast
HCC-2998 colon = system: HCC-2998 colon
A498 renal = system: A498 renal

Measured: TGI

Fc1cc(-c2cc(-c3ccccc3)n[nH]2)c(Cl)cc1Cl
57.6 µM: MOLT-4 leukemia
60.7 µM: SF-539 CNS
23.2 µM: K-562 leukemia
not listed: UACC-62 melanoma | MCF7 breast | HCC-2998 colon | A498 renal
> 100 µM: all other assays above

COc1ccc(NS(=O)c2ccc(Cl)cc2)cc1 (centres undefined)
39.9 µM: UACC-62 melanoma
23.8 µM: KM12 colon
39.2 µM: SF-268 CNS
30 µM: SF-539 CNS
41.2 µM: T-47D breast
70 µM: SK-MEL-2 melanoma
63.9 µM: BT-549 breast
81.1 µM: NCI-H226 lung
54.2 µM: U251 CNS
42.4 µM: UO-31 renal
76.1 µM: MDA-MB-435
60 µM: MALME-3M melanoma
not listed: CAKI-1 renal | PC-3 prostate | RXF 393 renal | HOP-92 NSCLC | SNB-75 CNS | OVCAR-5 ovarian | SK-OV-3 ovarian | A498 renal
> 100 µM: all other assays above

COc1ccc2c(c1)O[C@@H]1[C@@H](OC3OC(CO)C(O)C(O)C3O)Oc3cc(OC)c(OC)cc3[C@]1(O)C2=O (some centres undefined)
not listed: MCF7 breast
> 100 µM: all other assays above
